The molecules below were run on human peripheral blood mononuclear cells (PBMC) (assay: PBMC cytotoxicity assay (CellTiter-Glo)). Conditions: cytotoxicity in stimulated PBMC, recorded as pCC50.
Type: cell-based
Protocol: Compounds of the present invention were tested via high-throughput cellular assays utilizing detection of kynurenine via mass spectrometry and cytotoxicity as end-points. […] Compounds with IDO1 inhibitory properties decreased the amount of kynurenine produced by the cells via the tryptophan catabolic pathway. Cellular toxicity due to the effect of compound treatment was measured using CellTiter-Glo® reagent (CTG) (Promega Corporation, Madison, Wis.), which is based on luminescent detection of ATP, an indicator of metabolically active cells.
In preparation for the assays, test compounds were serially diluted 3-fold in DMSO from a typical top concentration of 1 mM or 5 mM and plated at 0.5 μL in 384-well, polystyrene, clear bottom, tissue culture treated plates with lids (Greiner Bio-One, Kremsmünster, Austria) to generate 11-point dose response curves. Low control wells (0% kynurenine or 100% cytotoxicity) contained either 0.5 μL of DMSO in the presence of unstimulated (−IFN-γ/−LPS) PBMCs for the mass spectrometry assay or 0.5 μL of DMSO in the absence of cells for the cytotoxicity assay, and high control wells (100% kynurenine or 0% cytotoxicity) contained 0.5 μL of DMSO in the presence of stimulated (+IFN-γ/+LPS) PBMCs for both the mass spectrometry and cytotoxicity assays.
Frozen stocks of PBMCs were washed and recovered in RPMI 1640 medium (Thermo Fisher Scientific, Inc., Waltham, Mass.) supplemented with 10% v/v heat-inactivated fetal bovine serum (FBS) (Thermo Fisher Scientific, Inc., Waltham, Mass.), and 1× penicillin-streptomycin antibiotic solution (Thermo Fisher Scientific, Inc., Waltham, Mass.). The cells were diluted to 1,000,000 cells/mL in the supplemented RPMI 1640 medium. 50 μL of either the cell suspension, for the mass spectrometry assay, or medium alone, for the cytotoxicity assay, were added to the low control wells, on the previously prepared 384-well compound plates, resulting in 50,000 cells/well or 0 cells/well respectively. IFN-γ and LPS were added to the remaining cell suspension at final concentrations of 100 ng/ml and 50 ng/ml respectively, and 50 μL of the stimulated cells were added to all remaining wells on the 384-well compound plates. The plates, with lids, were then placed in a 37° C., 5% CO2 humidified incubator for 2 days.
Following incubation, the 384-well plates were removed from the incubator and allowed to equilibrate to room temperature for 30 minutes. For the cytotoxicity assay, CellTiter-Glo® was prepared according to the manufacturer's instructions, and 40 μL were added to each plate well. After a twenty minute incubation at room temperature, luminescence was read on an EnVision® Multilabel Reader (PerkinElmer Inc., Waltham, Mass.). For the mass spectrometry assay, 10 μL of supernatant from each well of the compound-treated plates were added to 40 μL of acetonitrile, containing 10 μM of an internal standard for normalization, in 384-well, polypropylene, V-bottom plates (Greiner Bio-One, Kremsmünster, Austria) to extract the organic analytes. Following centrifugation at 2000 rpm for 10 minutes, 10 μL from each well of the acetonitrile extraction plates were added to 90 μL of sterile, distilled H2O in 384-well, polypropylene, V-bottom plates for analysis of kynurenine and the internal standard on the RapidFire 300 (Agilent Technologies, Santa Clara, Calif.) and 4000 QTRAP MS (SCIEX, Framingham, Mass.). MS data were integrated using Agilent Technologies' RapidFire Integrator software, and data were normalized for analysis as a ratio of kynurenine to the internal standard.
For `CC(C)CN(c1ncc([C@H](C)CC(=O)O)cc1Nc1nc(C2CC2)ns1)C1CCOCC1` [Example 41, (3R)-3-{5-[(3-cyclopropyl-1,2,4-thiadiazol-5-yl)amino]-6-[(2-methylpropyl)(oxan-4-yl)amino]pyridin-3-yl}butanoic acid], the “PBMC_TOX PXC50” value was under 5.0. With `CC(C)CN(c1ncc([C@H](C)CC(=O)O)cc1Nc1n[nH]c(C(F)(F)F)n1)C1CCOCC1` [Example 42, (3R)-3-{6-[(2-methylpropyl)(oxan-4-yl)amino]-5-{[5-(trifluoromethyl)-1H-1,2,4-triazol-3-yl]amino}pyridin-3-yl}butanoic acid] the “PBMC_TOX PXC50” value was under 5.0. With `CC(C)CN(c1ncc([C@H](C)CC(=O)O)cc1Nc1n[nH]c(C#N)n1)C1CCOCC1` [Example 43, (3R)-3-{5-[(5-cyano-1H-1,2,4-triazol-3-yl)amino]-6-[(2-methylpropyl)(oxan-4-yl)amino]pyridin-3-yl}butanoic acid] the “PBMC_TOX PXC50” value was under 5.0. For `CC(C)CN(c1ncc([C@H](C)CC(=O)O)cc1Nc1n[nH]c(C(N)=O)n1)C1CCOCC1` [Example 44, (3R)-3-{5-[(5-carbamoyl-1H-1,2,4-triazol-3-yl)amino]-6-[(2-methylpropyl)(oxan-4-yl)amino]pyridin-3-yl}butanoic acid], the “PBMC_TOX PXC50” value was under 5.0. With `Cc1nnc(Nc2cc([C@H](C)CC(=O)O)cnc2N(CC(C)C)C2CCCCC2)s1` [Example 45, (3R)-3-{6-[cyclohexyl(2-methylpropyl)amino]-5-[(5-methyl-1,3,4-thiadiazol-2-yl)amino]pyridin-3-yl}butanoic acid] the “PBMC_TOX PXC50” value was under 5.0. In the case of `COC1CCC(N(CC(C)C)c2ncc(C(C)CC(=O)O)cc2Nc2nc(Cl)ns2)CC1` (stereo not drawn) [Example 46, (3RS)-3-{5-[(3-chloro-1,2,4-thiadiazol-5-yl)amino]-6-[(2-methylpropyl)[(1rs&,4rs&)-4-methoxycyclohexyl]amino]pyridin-3-yl}butanoic acid], the “PBMC_TOX PXC50” value is reported as under 5.0. For `COCc1ccc(Nc2cc(C(C)CC(=O)O)cnc2N(CC(C)C)C2CCC(OC)CC2)nc1` (stereo not drawn) [Example 47, (3RS)-3-(5-{[5-(methoxymethyl)pyridin-2-yl]amino}-6-[(2-methylpropyl)[(1rs&,4rs&)-4-methoxycyclohexyl]amino]pyridin-3-yl)butanoic acid], the “PBMC_TOX PXC50” value was under 5.0. In the case of `CC(C)CN(c1ncc([C@H](C)CC(=O)O)cc1Nc1nc(C(F)(F)F)c[nH]1)C1CCOCC1` [Example 48, (3R)-3-{6-[(2-methylpropyl)(oxan-4-yl)amino]-5-{[4-(trifluoromethyl)-1H-imidazol-2-yl]amino}pyridin-3-yl}butanoic acid], the “PBMC_TOX PXC50” value is reported as under 5.0. With `COCc1nnc(Nc2cc([C@H](C)CC(=O)O)cnc2N(CC(C)C)C2CCOCC2)s1` [Example 49, (3R)-3-(5-{[5-(methoxymethyl)-1,3,4-thiadiazol-2-yl]amino}-6-[(2-methylpropyl)(oxan-4-yl)amino]pyridin-3-yl)butanoic acid] the “PBMC_TOX PXC50” value was under 5.0. For `COC(=O)c1c[nH]c(Nc2cc([C@H](C)CC(=O)O)cnc2N(CC(C)C)C2CCOCC2)n1` [Example 50, (3R)-3-(5-{[4-(methoxycarbonyl)-1H-imidazol-2-yl]amino}-6-[(2-methylpropyl)(oxan-4-yl)amino]pyridin-3-yl)butanoic acid], the “PBMC_TOX PXC50” value was under 5.0. With `CC(C)CN(CC(C)C)c1ncc([C@H](C)CC(=O)O)cc1Nc1nnc(C(F)(F)F)s1` [Example 51, (3R)-3-{6-[bis(2-methylpropyl)amino]-5-{[5-(trifluoromethyl)-1,3,4-thiadiazol-2-yl]amino}pyridin-3-yl}butanoic acid] the “PBMC_TOX PXC50” value was under 5.0. `CC(C)CN(c1ncc([C@H](C)CC(=O)O)cc1Nc1ccc(C(F)(F)F)cn1)C1CCOCC1` [Example 52, (3R)-3-{6-[(2-methylpropyl)(oxan-4-yl)amino]-5-{[5-(trifluoromethyl)pyridin-2-yl]amino}pyridin-3-yl}butanoic acid] was tested, and the “PBMC_TOX PXC50” value was under 5.0. For `COC1CCC(N(CC(C)C)c2ncc(C(C)CC(=O)O)cc2Nc2ccc(C#N)cn2)CC1` (stereo not drawn) [Example 53, (3RS)-3-{5-[(5-cyanopyridin-2-yl)amino]-6-[(2-methylpropyl)[(1rs&,4rs&)-4-methoxycyclohexyl]amino]pyridin-3-yl}butanoic acid], the “PBMC_TOX PXC50” value was under 5.0. With `CC(C)CN(CC(C)C)c1ncc([C@H](C)CC(=O)O)cc1Nc1nc(C(C)C)ns1` [Example 54, (3R)-3-{6-[bis(2-methylpropyl)amino]-5-{[3-(propan-2-yl)-1,2,4-thiadiazol-5-yl]amino}pyridin-3-yl}butanoic acid] the “PBMC_TOX PXC50” value was under 5.0. `Cc1ccc(CC(=O)Nc2cc([C@H](C)CC(=O)O)cnc2N(CC(C)C)C2CC3(C2)CN(C(=O)OC(C)(C)C)C3)cc1` [Example 55, (3R)-3-[6-({2-[(tert-butoxy)carbonyl]-2-azaspiro[3.3]heptan-6-yl}(2-methylpropyl)amino)-5-[2-(4-methylphenyl)acetamido]pyridin-3-yl]butanoic acid] was tested, and the “PBMC_TOX PXC50” value was under 5.0. `COCc1nsc(Nc2cc([C@H](C)CC(=O)O)cnc2N(CC(C)C)C2CCOCC2)n1` [Example 56, (3R)-3-(5-{[3-(methoxymethyl)-1,2,4-thiadiazol-5-yl]amino}-6-[(2-methylpropyl)(oxan-4-yl)amino]pyridin-3-yl)butanoic acid] was tested, and the “PBMC_TOX PXC50” value was under 5.0. For `COCc1ccc(Nc2cc([C@H](C)CC(=O)O)cnc2N(CC(C)C)[C@H]2CC[C@@H](OC)CC2)nc1` [Example 58, (3R)-3-(5-{[5-(methoxymethyl)pyridin-2-yl]amino}-6-[(2-methylpropyl)[(1s,4s)-4-methoxycyclohexyl]amino]pyridin-3-yl)butanoic acid], the “PBMC_TOX PXC50” value was under 5.0. For `CC(C)CN(c1ncc(C(C)CC(=O)O)cc1Nc1nc(C(F)(F)F)ns1)C1CCC(O)CC1` (stereo not drawn) [Example 59, (3RS)-3-{6-[(2-methylpropyl)[(1rs&,4rs&)-4-hydroxycyclohexyl]amino]-5-{[3-(trifluoromethyl)-1,2,4-thiadiazol-5-yl]amino}pyridin-3-yl}butanoic acid], the “PBMC_TOX PXC50” value was under 5.0. `CC(C)CN(c1ncc([C@H](C)CC(=O)O)cc1Nc1ccc(Cl)nn1)C1CCOCC1` [Example 60, (3R)-3-{5-[(6-chloropyridazin-3-yl)amino]-6-[(2-methylpropyl)(oxan-4-yl)amino]pyridin-3-yl}butanoic acid] was tested, and the “PBMC_TOX PXC50” value was under 5.0. In the case of `Cc1cc(NC(=O)Nc2cc([C@H](C)CC(=O)O)cnc2N(CC(C)C)C2CC3(C2)CN(C(=O)OC(C)(C)C)C3)on1` [Example 61, (3R)-3-[6-({2-[(tert-butoxy)carbonyl]-2-azaspiro[3.3]heptan-6-yl}(2-methylpropyl)amino)-5-{[(3-methyl-1,2-oxazol-5-yl)carbamoyl]amino}pyridin-3-yl]butanoic acid], the “PBMC_TOX PXC50” value is reported as under 5.0. In the case of `CC(C)CN(c1ncc([C@H](C)CC(=O)O)cc1Nc1ccc(C#N)nc1)C1CCOCC1` [Example 62, (3R)-3-{5-[(6-cyanopyridin-3-yl)amino]-6-[(2-methylpropyl)(oxan-4-yl)amino]pyridin-3-yl}butanoic acid], the “PBMC_TOX PXC50” value is reported as under 5.0. With `CC(C)CN(c1ncc([C@H](C)CC(=O)O)cc1Nc1nnc(C(N)=O)s1)C1CCCCC1` [Example 63, (3R)-3-{5-[(5-carbamoyl-1,3,4-thiadiazol-2-yl)amino]-6-[cyclohexyl(2-methylpropyl)amino]pyridin-3-yl}butanoic acid] the “PBMC_TOX PXC50” value was under 5.0. In the case of `CNC(=O)c1nnc(Nc2cc([C@H](C)CC(=O)O)cnc2N(CC(C)C)C2CCCCC2)s1` [Example 64, (3R)-3-{6-[cyclohexyl(2-methylpropyl)amino]-5-{[5-(methylcarbamoyl)-1,3,4-thiadiazol-2-yl]amino}pyridin-3-yl}butanoic acid], the “PBMC_TOX PXC50” value is reported as under 5.0. For `CC(C)CN(c1ncc([C@H](C)CC(=O)O)cc1Nc1cnc(C#N)nc1)C1CCOCC1` [Example 65, (3R)-3-{5-[(2-cyanopyrimidin-5-yl)amino]-6-[(2-methylpropyl)(oxan-4-yl)amino]pyridin-3-yl}butanoic acid], the “PBMC_TOX PXC50” value was under 5.0.

— US10787442B2, “Modulators of indoleamine 2,3-dioxygenase” (GLAXOSMITHKLINE INTELLECTUAL PROPERTY DEVELOPMENT LIMITED, priority 2016, dated 2020)
